The values that follow are results of earlier work, collected in patent US12605354B2, “Azelaic acid esters in the treatment or prevention of dyslipidemia and associated conditions” (NEW FRONTIER LABS, LLC, priority 2020, dated 2026).

Read-outs that look alike come from different tables or passages of the source.

For series [1] the following is noted: cited from earlier work; for Hypoglycemia: reference 51.
For series [2], the system named is 16 subjects with Type II diabetes. The following applies: cited from earlier work.
The test system of series [3] is 4750 prediabetic subjects. The following applies: cited from earlier work.
For series [4] the following is noted: 15-year study [49]; cited from earlier work.
A further series concerns statin-naïve individuals. As to conditions: 1 year (T2D), reference 52, cited from earlier work; for LDL/HDL, decrease: statin-naïve individuals.
Where [5] appears, read: 28-day study in 16 subjects with Type II diabetes [47].
Where [6] appears, read: 8 weeks (T2D risk), reference 48.
Setting [7] is: meta-analysis, trials of at least 8 weeks, compared to placebo or no treatment [48].

As for `CN(C)C(=N)N=C(N)N` [Metformin, metformin], in series [1] ([53]), the “patients who cannot tolerate metformin at all” value is 5% and the “users with severe gastrointestinal side effects” value is on record as 1 of 4. Besides, the Hypoglycemia result in series [1] (multiple studies) is “infrequent event”. Also, the Hypoglycemia result in series [1] (multiple studies, listed as metformin) was “Neither metformin nor DEA administration as presented herein induced hypoglycemia”. Further, the Side effects entry in series [1] (multiple studies, reference 53) is recorded as “severe gastrointestinal effects”. Besides, the “Cholesterol/HDL, decrease” value in series [2] (4 weeks (T2D), reference 47) is 9.2% decrease. Moreover, in series [2] (setting [5]), the fasting glucose entry is “reduced fasting glucose” and the insulin levels entry is given as “no effect on insulin levels”. In series [3] (setting [6]), the “Fasting insulin, decrease” value was 14.4% decrease and the “Fasting plasma glucose, decrease” value is 4.5% decrease. For the same compound, in series [3] (setting [7]), the “change of LDL” value was −5.6%, the “change of fasting glucose” value was −4.5%, the “change of fasting insulin” value is listed as −14.4% and the “increase of HDL” value is given as 5.0%. In addition, in series [4], the “reduction of the incidence of diabetes compared to placebo” value is reported as 17%. For the same compound, in the series with statin-naïve individuals, the “LDL/HDL, decrease” value is listed as 11.7% decrease; the “HDL, increase” value is given as 5% increase; the “LDL, decrease” value was 5.6% decrease. Moreover, in the series on statin-naïve individuals (listed as metformin), the “LDL/HDL, decrease” value is 11.7%.
